Laboratory results published in the NIST ThermoML archive (doi:10.1021/acs.jced.8b00176).

Assay: xn = mol fraction of the nth substance listed
Conditions: 100 kPa, Liquid; for viscosity: Falling or rolling sphere viscometry; for speed of sound: Frequency=3 MHz, Single path-length method; for mass density: Vibrating tube method

CCCCn1cc[n+](C)c1.O=S(=O)([O-])C(F)(F)F [1-butyl-3-methylimidazolium trifluoromethanesulfonate] + CC#N
Conditions | mass density [kg/m3] | speed of sound [m/s] | viscosity [mPa·s]
298.15 K, x1 = 0.0911 | 958.58 | 1306.2 | 0.94
298.15 K, x1 = 0.2023 | 1074.82 | 1330.8 | 1.74
298.15 K, x1 = 0.3029 | 1137.12 | 1347.2 | 4.03
298.15 K, x1 = 0.3998 | 1179 | 1359.4 | 6.63
298.15 K, x1 = 0.4994 | 1211.16 | 1368.6 | 11.09
298.15 K, x1 = 0.5953 | 1234.14 | 1375.6 | 19.01
298.15 K, x1 = 0.7029 | 1255.85 | 1382.5 | 29.57
298.15 K, x1 = 0.8009 | 1271.78 | 1386.6 | 40.36
298.15 K, x1 = 0.9012 | 1285.59 | 1389.8 | 56.57
298.15 K, x1 = 1 | 1297.46 | 1393.2 | 82.38
303.15 K, x1 = 0.0911 | 954.576 | 1289.2 | 0.88
303.15 K, x1 = 0.2023 | 1070.41 | 1315.6 | 1.61
303.15 K, x1 = 0.3029 | 1132.76 | 1333 | 3.64
303.15 K, x1 = 0.3998 | 1174.94 | 1346.1 | 5.9
303.15 K, x1 = 0.4994 | 1207.1 | 1355.7 | 9.65
303.15 K, x1 = 0.5953 | 1230.08 | 1363.1 | 16.22
303.15 K, x1 = 0.7029 | 1251.97 | 1370.6 | 24.73
303.15 K, x1 = 0.8009 | 1267.97 | 1374.9 | 33.14
303.15 K, x1 = 0.9012 | 1281.58 | 1378.4 | 45.89
303.15 K, x1 = 1 | 1293.46 | 1382.8 | 66.69
308.15 K, x1 = 0.0911 | 949.838 | 1272.1 | 0.83
308.15 K, x1 = 0.2023 | 1066.01 | 1300.6 | 1.58
308.15 K, x1 = 0.3029 | 1128.52 | 1318.8 | 3.3
308.15 K, x1 = 0.3998 | 1170.95 | 1332.8 | 5.26
308.15 K, x1 = 0.4994 | 1202.79 | 1343 | 8.46
308.15 K, x1 = 0.5953 | 1225.98 | 1350.7 | 13.86
308.15 K, x1 = 0.7029 | 1247.9 | 1358.8 | 20.9
308.15 K, x1 = 0.8009 | 1264.18 | 1363.4 | 27.82
308.15 K, x1 = 0.9012 | 1277.73 | 1367 | 37.7
308.15 K, x1 = 1 | 1289.47 | 1371.7 | 52.86
313.15 K, x1 = 0.0911 | 944.8 | 1255.1 | 0.79
313.15 K, x1 = 0.2023 | 1061.34 | 1285.5 | 1.48
313.15 K, x1 = 0.3029 | 1124.17 | 1304.8 | 3.01
313.15 K, x1 = 0.3998 | 1166.71 | 1319.6 | 4.73
313.15 K, x1 = 0.4994 | 1198.75 | 1330.3 | 7.48
313.15 K, x1 = 0.5953 | 1221.91 | 1338.4 | 12.06
313.15 K, x1 = 0.7029 | 1243.95 | 1347 | 17.91
313.15 K, x1 = 0.8009 | 1260.12 | 1352 | 23.51
313.15 K, x1 = 0.9012 | 1273.98 | 1355.8 | 31.45
313.15 K, x1 = 1 | 1285.47 | 1360.7 | 43.67
318.15 K, x1 = 0.0911 | 939.614 | 1238.2 | 0.75
318.15 K, x1 = 0.2023 | 1057.1 | 1270.6 | 1.4
318.15 K, x1 = 0.3029 | 1120.05 | 1290.8 | 2.75
318.15 K, x1 = 0.3998 | 1162.77 | 1306.4 | 4.26
318.15 K, x1 = 0.4994 | 1194.47 | 1317.7 | 6.65
318.15 K, x1 = 0.5953 | 1217.75 | 1326.2 | 10.56
318.15 K, x1 = 0.7029 | 1240.12 | 1335.4 | 15.52
318.15 K, x1 = 0.8009 | 1256.17 | 1340.7 | 20.16
318.15 K, x1 = 0.9012 | 1270.02 | 1344.7 | 26.58
318.15 K, x1 = 1 | 1281.47 | 1349.9 | 36.29
323.15 K, x1 = 0.0911 | 934.671 | 1221.3 | 0.71
323.15 K, x1 = 0.2023 | 1052.93 | 1255.8 | 1.32
323.15 K, x1 = 0.3029 | 1115.71 | 1276.9 | 2.54
323.15 K, x1 = 0.3998 | 1158.5 | 1293.4 | 3.88
323.15 K, x1 = 0.4994 | 1190.69 | 1305.2 | 5.95
323.15 K, x1 = 0.5953 | 1213.78 | 1314 | 9.33
323.15 K, x1 = 0.7029 | 1236.14 | 1323.8 | 13.54
323.15 K, x1 = 0.8009 | 1252.29 | 1329.5 | 17.4
323.15 K, x1 = 0.9012 | 1266.17 | 1333.7 | 22.66
323.15 K, x1 = 1 | 1277.48 | 1338.8 | 30.57
